Laboratory results published in ChEMBL document CHEMBL1135291, “Novel matrix metallo-proteinase (MMP-2) phosphonoboronate inhibitors” (Bioorg Med Chem Lett, 2002).

target: 72 kDa type IV collagenase (Homo sapiens) (UniProt P08253); assay: Inhibition of Matrix metalloprotease-2 at 50 uM
Sequence (P08253 110-660 limits assumed): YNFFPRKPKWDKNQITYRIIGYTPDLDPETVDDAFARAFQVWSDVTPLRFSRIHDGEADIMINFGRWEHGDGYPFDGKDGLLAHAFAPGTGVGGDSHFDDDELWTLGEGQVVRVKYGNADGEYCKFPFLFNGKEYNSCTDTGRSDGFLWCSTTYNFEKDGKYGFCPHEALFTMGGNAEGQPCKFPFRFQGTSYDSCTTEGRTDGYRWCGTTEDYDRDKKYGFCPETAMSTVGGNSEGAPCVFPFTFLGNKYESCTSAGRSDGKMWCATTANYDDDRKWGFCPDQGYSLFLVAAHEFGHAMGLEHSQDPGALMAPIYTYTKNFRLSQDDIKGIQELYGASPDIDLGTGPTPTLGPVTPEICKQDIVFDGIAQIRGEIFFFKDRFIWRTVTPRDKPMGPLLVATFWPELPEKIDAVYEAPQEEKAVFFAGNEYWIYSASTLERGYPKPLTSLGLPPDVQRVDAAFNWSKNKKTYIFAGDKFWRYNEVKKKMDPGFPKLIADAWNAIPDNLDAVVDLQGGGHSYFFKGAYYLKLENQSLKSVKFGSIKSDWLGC

`CCCCCC(B1OC(C)(C)C(C)(C)O1)P(=O)(O)O` (configuration not stated) was tested. Which inhibition did it give?
Its inhibition is 50%.

Which inhibition does the source give for `CC1(C)OB(/C=C/CP(=O)(O)O)OC1(C)C` here?
The inhibition was 75%.

For `CC1(C)OB(CP(=O)(O)O)OC1(C)C`, which inhibition is on record?
Its inhibition is 50%.

How did the inhibition turn out when `O=P(O)(O)CB(O)O` was run?
The inhibition was 0%.

With `CC1(C)OB(C(Cc2ccccc2)P(=O)(O)O)OC1(C)C` (configuration not stated) as the compound, how does the inhibition read?
The inhibition was 40%.

With `COP(=O)(CC1OC(C)(C)C(C)(C)O1)OC` as the compound, how does the inhibition read?
The inhibition was 0%.

How did the inhibition turn out when `CC1(C)OB(C(CCCCl)P(=O)(O)O)OC1(C)C` (configuration not stated) was run?
Its inhibition is 55%.
